Ki and MIC data for 20 compounds are collected here from patent US20030114445A1, “N3-substituted 6-anilinopyrimidines and methods to treat-Gram-positive bacterial and mycoplasmal infections” (priority 2001, published 2003).

Structures are written as SMILES. Converted amounts (≈) assume the structure as drawn.

Assay [1] has as its target B.subtilis pol IIIC (Bacillus subtilis, UniProt P13267). The assay can be described thus: biochemical. The procedure:
DNA pol activity was assayed as described in Barnes et al., Nuc. Acids Res., 6:1203-19 (1979), using activated “nicked” calf-thymus DNA as template primer, 10 pM [^3H-methyl]-dTTP as the labelled dNTP substrate, and dATP, dCTP, and dGTP at 25 μM each.
Inhibitory activity of the compounds is determined by measuring the ability of the agent to inhibit enzyme-catalyzed incorporation of [^3H]-dTMP into nicked calf thymus DNA in the absence of the competitor dGTP or dATP (“truncated assay”) (see G. E. Wright and N. C. Brown, Inhibition of Bacillus subtilis DNA Polymerase III by Arylhydrazinopyrimidines: Novel Properties of 2-Thiouracil Derivatives, Biochim. Biophys. Acta 432:37-48 (1976)). Purified pol IIIC is added to a buffered solution containing Mg^2+, DTT, glycerol, nicked calf thymus DNA, saturating concentrations of dATP, dCTP, dTTP and [^3H]-dTTP. Reaction mixtures are incubated at 30° C. for 10 minutes, quenched and filtered, and radioactivity in the acid-insoluble material measured by scintillation counting. Experiments are done in triplicate. Inhibitors are assayed by addition of several dilutions of a stock solution of inhibitor (DMSO or water, depending on solubility) before enzyme addition. […] The truncated assay, i.e. exclusion of the competitive substrate dGTP or dATP, depending upon whether the compound is a uracil derivative or an isocytosine derivative, respectively, allows for the direct determination of apparent inhibitor constants (K,) in this assay system.

The test system of assay [2] is B. subtilis. Description: Inhibition of bacterial growth on agar plates (MIC). The format is cell-based. Particulars: Bacillus subtilis, 37° C., 24 hours. On the procedure: (§1) Each compound is assayed against a panel of Bacillus, Enterococcus and Staphylococcus, and a Gram-negative bacterium Escherichia coli as negative control, grown in appropriate plate media solidified with 1.3% agar-agar. Stock solutions of the compounds in dimethylsulfoxide or water, depending on solubility, are added to sterile medium at a temperature of 60° C. […] One tenth mL of diluted bacteria containing 500-1000 colony-forming units (CFU) are plated and spread, and the plates incubated at 37° C. for 24 hours. MIC (minimum inhibitory concentration) is equivalent to the lowest concentration at which growth, i.e. colony formation, is not observed.

Assay [3] has as its system E. fecalis. The description is as above. The class given is cell-based. As to conditions: 37° C., 24 hours. The procedure:
as §1

In assay [4] the test system is E. fecium. Described as above. The class given is cell-based. As to conditions: 37° C., 24 hours. The procedure: as §1
For assay [5], the system named is S.aureus (Smith). Described as above. The class given is cell-based. As to conditions: Staphylococcus aureus, 37° C., 24 hours. The procedure: as §1

Chain of B.subtilis pol IIIC (P13267 whole entry): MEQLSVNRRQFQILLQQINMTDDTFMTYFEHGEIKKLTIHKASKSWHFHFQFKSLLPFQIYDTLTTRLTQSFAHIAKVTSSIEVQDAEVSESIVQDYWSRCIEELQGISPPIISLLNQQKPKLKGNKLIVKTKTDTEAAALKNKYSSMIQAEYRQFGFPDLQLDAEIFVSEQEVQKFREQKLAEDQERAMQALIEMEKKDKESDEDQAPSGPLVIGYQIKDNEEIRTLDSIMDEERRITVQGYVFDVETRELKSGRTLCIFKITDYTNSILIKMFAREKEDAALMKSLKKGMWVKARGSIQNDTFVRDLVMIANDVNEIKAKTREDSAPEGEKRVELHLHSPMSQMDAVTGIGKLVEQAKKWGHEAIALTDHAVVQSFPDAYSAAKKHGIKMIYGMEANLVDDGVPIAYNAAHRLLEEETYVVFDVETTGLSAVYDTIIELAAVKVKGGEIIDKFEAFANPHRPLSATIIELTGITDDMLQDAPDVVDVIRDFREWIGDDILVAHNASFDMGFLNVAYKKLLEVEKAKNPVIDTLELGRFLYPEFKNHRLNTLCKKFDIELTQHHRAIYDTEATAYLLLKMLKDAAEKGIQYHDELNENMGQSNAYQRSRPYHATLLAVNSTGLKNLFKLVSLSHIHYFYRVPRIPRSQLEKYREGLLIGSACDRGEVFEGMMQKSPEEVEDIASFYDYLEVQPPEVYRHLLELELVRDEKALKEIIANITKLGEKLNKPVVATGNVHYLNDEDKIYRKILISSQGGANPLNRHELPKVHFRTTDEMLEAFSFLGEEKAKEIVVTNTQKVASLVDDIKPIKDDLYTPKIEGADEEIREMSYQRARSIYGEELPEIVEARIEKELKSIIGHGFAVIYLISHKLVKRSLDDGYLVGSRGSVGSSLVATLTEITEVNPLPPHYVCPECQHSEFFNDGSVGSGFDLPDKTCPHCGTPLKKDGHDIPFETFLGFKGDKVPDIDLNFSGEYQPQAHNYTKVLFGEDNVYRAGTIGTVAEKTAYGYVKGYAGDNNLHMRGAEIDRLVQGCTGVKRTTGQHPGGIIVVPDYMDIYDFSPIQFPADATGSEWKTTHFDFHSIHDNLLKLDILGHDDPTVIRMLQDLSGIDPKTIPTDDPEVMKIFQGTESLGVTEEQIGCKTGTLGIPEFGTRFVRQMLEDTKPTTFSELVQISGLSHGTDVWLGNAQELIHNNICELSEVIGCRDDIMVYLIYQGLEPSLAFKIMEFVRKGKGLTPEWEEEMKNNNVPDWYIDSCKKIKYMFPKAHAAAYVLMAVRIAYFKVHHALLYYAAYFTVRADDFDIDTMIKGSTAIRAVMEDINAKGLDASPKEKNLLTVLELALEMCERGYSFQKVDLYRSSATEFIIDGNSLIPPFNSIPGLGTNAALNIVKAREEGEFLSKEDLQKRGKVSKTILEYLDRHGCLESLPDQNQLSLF

Usually Ki stands for the dissociation constant of the complex between target and ligand, obtained from inhibition or displacement. Lower therefore signals tighter binding. Broadly, the MIC is the least concentration at which growth counts as inhibited. Low values mean greater potency, high ones weaker potency. `CCc1cc(Nc2cc(=O)n(CCOCCOCc3ccccc3)c(=O)[nH]2)ccc1C` [Compound 5, 3-[2-(2-Benzyloxyethoxy)ethyl]-6-(3-ethyl-4-methylanilino)uracil] came in with an inhibition constant (Ki) in assay [1] of 56 nM. For the same compound, the MIC in assay [2] was less than 1.25 µg/mL; in assay [3], 5 µg/mL (≈ 11.8 µM); in assay [4], 10 µg/mL (≈ 23.6 µM); in assay [5] it was 5 µg/mL (≈ 11.8 µM).
In turn, `CCOC(=O)CCCCn1c(=O)cc(Nc2ccc(C)c(CC)c2)[nH]c1=O` [Compound 6, 3-(4-Ethoxycarbonylbutyl)-6-(3-ethyl-4-methylanilino)uracil] registered a Ki in assay [1] of 76 nM. The MIC in assay [2] is less than 1.25 µg/mL; in assay [3], 5 µg/mL (≈ 13.4 µM); in assay [4] it was less than 1.25 µg/mL; in assay [5] it was 2.5 µg/mL (≈ 6.69 µM).
In assay [1], `CCc1cc(Nc2cc(=O)n(C/C=C/C(=O)OC)c(=O)[nH]2)ccc1C` [Compound 7, 3-[3-(Methoxycarbonyl)-2-propenyl]-6-(3-ethyl-4-methylanilino)uracil] yielded a Ki of 320 nM. Moreover, the MIC came to 2.5 µg/mL (≈ 7.28 µM) in assay [2], 20 µg/mL (≈ 58.2 µM) in assay [3], 5 µg/mL (≈ 14.6 µM) in assay [4] and 10 µg/mL (≈ 29.1 µM) in assay [5].
The corresponding values for `CCc1cc(Nc2cc(=O)n(CCCC(C)=O)c(=O)[nH]2)ccc1C` [Compound 8, 3-(4-Oxopentyl)-6-(3-ethyl-4-methylanilino)uracil] are 61 nM, less than 1.25 µg/mL, 5 µg/mL (≈ 15.2 µM), 5 µg/mL (≈ 15.2 µM) and 5 µg/mL (≈ 15.2 µM).
In the case of `CCOC(=O)CCCn1c(=O)cc(Nc2ccc(C)c(CC)c2)[nH]c1=O` [Compound 10, 3-[3-(Ethoxycarbonyl)propyl]-6-(3-ethyl-4-methylanilino)uracil], in assay [1], affinity was put at a Ki of 100 nM. Moreover, the MIC was less than 1.25 µg/mL in assay [2], 5 µg/mL (≈ 13.9 µM) in assay [3], 2.5 µg/mL (≈ 6.96 µM) in assay [4] and 2.5 µg/mL (≈ 6.96 µM) in assay [5].
The compound `CCc1cc(Nc2cc(=O)n(CC(=O)N(CC)CC)c(=O)[nH]2)ccc1C` [Compound 11, 3-[(N,N-Diethylaminocarbonyl)methyl]-6-(3-ethyl-4-methylanilino)uracil] displayed a Ki in assay [1] of 450 nM. For the same compound, the MIC was 2.5 µg/mL (≈ 6.97 µM) in assay [2], 20 µg/mL (≈ 55.8 µM) in assay [3], 20 µg/mL (≈ 55.8 µM) in assay [4] and 10 µg/mL (≈ 27.9 µM) in assay [5].
On to `CCc1cc(Nc2cc(=O)n(CCOCCOC)c(=O)[nH]2)ccc1C` [Compound 12, 3-[2-(2-Methoxyethoxy)ethyl]-6-(3-ethyl-4-methylanilino)uracil], for which, in assay [1], the affinity, expressed as Ki, was 45 nM. The MIC in assay [2] stood at 2.5 µg/mL (≈ 7.2 µM); in assay [3], 5 µg/mL (≈ 14.4 µM); in assay [4] it was 5 µg/mL (≈ 14.4 µM); in assay [5], 2.5 µg/mL (≈ 7.2 µM).
`CCc1cc(Nc2cc(=O)n(CC#CCO)c(=O)[nH]2)ccc1C` [Compound 13, 3-(4-Hydoxy-2-butynyl)-6-(3-ethyl-4-methylanilino)uracil]: in assay [1], affinity was put at a Ki of 68 nM. The MIC was 5 µg/mL (≈ 16 µM) in assay [2], 10 µg/mL (≈ 31.9 µM) in assay [3], 10 µg/mL (≈ 31.9 µM) in assay [4] and 5 µg/mL (≈ 16 µM) in assay [5].
For `CCc1cc(Nc2cc(=O)n(CCN(CC)CC)c(=O)[nH]2)ccc1C` [Compound 14, 3-[2-(N,N-diethylamino)ethyl]-6-(3-ethyl-4-methylanilino)uracil], in assay [1], the Ki is 530 nM. Moreover, the MIC was found to be 10 µg/mL (≈ 29 µM) in assay [2], 20 µg/mL (≈ 58.1 µM) in assay [3], 20 µg/mL (≈ 58.1 µM) in assay [4] and 20 µg/mL (≈ 58.1 µM) in assay [5].
As for `CCc1cc(Nc2cc(=O)n(CC(C)=O)c(=O)[nH]2)ccc1C` [Compound 15, 3-(2-Oxopropyl)-6-(3-ethyl-4-methylanilino)uracil], the Ki in assay [1] was 303 nM. The minimum inhibitory concentration (MIC) in assay [2] came out at 2.5 µg/mL (≈ 8.3 µM); in assay [3], 20 µg/mL (≈ 66.4 µM); in assay [4] it was 10 µg/mL (≈ 33.2 µM); in assay [5], 10 µg/mL (≈ 33.2 µM).
In turn, `CCc1cc(Nc2cc(=O)n(CCNS(C)(=O)=O)c(=O)[nH]2)ccc1C` [Compound 16, 3-[2-(Methanesulfonylamino)ethyl]-6-(3-ethyl-4-methylanilino)uracil] yielded a Ki in assay [1] of 290 nM. Further, the MIC in assay [2] was determined as 5 µg/mL (≈ 13.6 µM); in assay [3] it was 20 µg/mL (≈ 54.6 µM); in assay [4], 10 µg/mL (≈ 27.3 µM); in assay [5] it was 10 µg/mL (≈ 27.3 µM).
Regarding `CCc1cc(Nc2cc(=O)n(CCN3CCOCC3)c(=O)[nH]2)ccc1C` [Compound 17, 3-[2-(N-morpholino)ethyl]-6-(3-ethyl-4-methylanilino)uracil], affinity in assay [1] was put at a Ki of 90 nM. Also, the minimum inhibitory concentration (MIC) in assay [2] is less than 1.25 µg/mL; in assay [3] it was 5 µg/mL (≈ 13.9 µM); in assay [4], 2.5 µg/mL (≈ 6.97 µM); in assay [5], 5 µg/mL (≈ 13.9 µM).
Take `CCc1cc(Nc2cc(=O)n(CCCCCCCCO)c(=O)[nH]2)ccc1C` [Compound 18, 3-(8-Hydroxyoctyl)-6-(3-ethyl-4-methylanilino)uracil]: the Ki in assay [1] came out at 26 nM. Also, the MIC was found to be 1.25 µg/mL (≈ 3.35 µM) in assay [2], 2.5 µg/mL (≈ 6.69 µM) in assay [3], 2.5 µg/mL (≈ 6.69 µM) in assay [4] and 2.5 µg/mL (≈ 6.69 µM) in assay [5].
On to `CCc1cc(Nc2cc(=O)n(CCCC#N)c(=O)[nH]2)ccc1C` [Compound 19, 3-(3-Cyanopropyl)-6-(3-ethyl-4-methylanilino)uracil], for which the Ki in assay [1] was found to be 140 nM. For the same compound, the MIC in assay [2] came out at 2.5 µg/mL (≈ 8 µM); in assay [3], 5 µg/mL (≈ 16 µM); in assay [4] it was 5 µg/mL (≈ 16 µM); in assay [5], 2.5 µg/mL (≈ 8 µM).
On to `CCc1cc(Nc2cc(=O)n(CCCCC#N)c(=O)[nH]2)ccc1C` [Compound 20, 3-(4-Cyanobutyl)-6-(3-ethyl-4-methylanilino)uracil], for which affinity in assay [1] was put at a Ki of 94 nM. Also, the MIC was 2.5 µg/mL (≈ 7.66 µM) in assay [2], 2.5 µg/mL (≈ 7.66 µM) in assay [3], 5 µg/mL (≈ 15.3 µM) in assay [4] and 2.5 µg/mL (≈ 7.66 µM) in assay [5].
The compound `CCc1cc(Nc2cc(=O)n(CCOCCOCCO)c(=O)[nH]2)ccc1C` [Compound 21, 3-{2-[2-Hydroxyethoxy-(2-ethoxy)]ethyl}-6-(3-ethyl-4-methylanilino)uracil] had a Ki in assay [1] of 87 nM. Moreover, the MIC in assay [2] was found to be 2.5 µg/mL (≈ 6.62 µM); in assay [3], 10 µg/mL (≈ 26.5 µM); in assay [4], 10 µg/mL (≈ 26.5 µM); in assay [5], 10 µg/mL (≈ 26.5 µM).
In turn, `CCc1cc(Nc2cc(=O)n(CCCCOC(C)=O)c(=O)[nH]2)ccc1C` [Compound 22, 3-(4-Acetoxybutyl)-6-(3-ethyl-4-methylanilino)uracil] gave an inhibition constant (Ki) in assay [1] of 58 nM. The MIC in assay [2] was 1.25 µg/mL (≈ 3.48 µM); in assay [3] it was 5 µg/mL (≈ 13.9 µM); in assay [4] it was 5 µg/mL (≈ 13.9 µM); in assay [5], 2.5 µg/mL (≈ 6.96 µM).
`CCc1cc(Nc2cc(=O)n(CCCC(O)CO)c(=O)[nH]2)ccc1C` (stereo not shown) [Compound 23, 3-(4,5-Dihydroxypentyl)-6-(3-ethyl-4-methylanilino)uracil] displayed an inhibitory constant (Ki) in assay [1] of 96 nM. Further, the minimal inhibitory concentration (MIC) in assay [2] turned out to be 10 µg/mL (≈ 28.8 µM); in assay [3], 20 µg/mL (≈ 57.6 µM); in assay [4], 20 µg/mL (≈ 57.6 µM); in assay [5], 20 µg/mL (≈ 57.6 µM).
Consider `CCc1cc(Nc2cc(=O)n(CCCN3CCOCC3)c(=O)[nH]2)ccc1C` [Compound 24, 3-[3-(N-Morpholino)propyl]-6-(3-ethyl-4-methylanilino)uracil], for which the Ki in assay [1] was 110 nM. Also, the minimal inhibitory concentration (MIC) was determined as 2.5 µg/mL (≈ 6.71 µM) in assay [2], 10 µg/mL (≈ 26.8 µM) in assay [3], 5 µg/mL (≈ 13.4 µM) in assay [4] and 10 µg/mL (≈ 26.8 µM) in assay [5].
`CCc1cc(Nc2cc(=O)n(CC(C)CO)c(=O)[nH]2)ccc1C` (stereo not shown) [Compound 25, 3-(3-Hydroxy-2-methylpropyl)-6-(3-ethyl-4-methylanilino)uracil] showed a Ki in assay [1] of 110 nM. Besides, the MIC in assay [2] was less than 1.25 µg/mL; in assay [3], 5 µg/mL (≈ 15.8 µM); in assay [4] it was 2.5 µg/mL (≈ 7.88 µM); in assay [5], 5 µg/mL (≈ 15.8 µM).
